# From a melting point compilation (Tetko et al.; mined from patent text by program, amines drawn as free bases though some values may be those of a salt)
row,melting point [°C],SMILES
1,92 to 93,CC(C)=CCN1c2ccccc2NC(=O)C1C (racemic)
2,172 to 173,CCOc1nn2c(-c3ccccc3)nnc2c2ccccc12
3,169 to 171,CS(=O)(=O)c1ccc(-c2cnn(C3CCCCC3)c(=O)c2-c2ccc(F)cc2)cc1
4,150 to 152,O=Cc1cc(OCCCNC(=O)NC2CCCCC2)ccc1[N+](=O)[O-]
5,197,CCOc1ccc2c(c1)n(C1CCCCC1)c(=O)n2S(=O)(=O)c1ccc(NC(=O)Oc2ccccc2)cc1OC
6,242,C#CCOc1cc(O)ccc1-c1nc2cnccc2[nH]1
7,276 to 279,Cc1cc(Br)cnc1CCCCc1cc(N)cc2c1C(N)=NS2(=O)=O
8,186 to 188,CNc1nc(-c2cccc(-c3cccnc3)c2)c2cc(OC)c(OC)cc2n1
9,170,COc1ccc2nccc(NC(=O)C3CCN(CCc4cnc5ccccc5n4)CC3)c2n1
10,135,O=C(Oc1ccccc1)c1ccccc1S
11,77 to 78,COCCNC(=O)c1cccc(-c2cccc3oc(Cc4ccc(F)c(Cl)c4)cc23)c1
12,152 to 154,COC(=O)c1ccccc1-c1cc(F)cc(OCc2ccc3c(-c4ccoc4)cc(C#N)nc3c2)c1
13,70 to 72,CCOC(=O)Cc1ccc(OCCCN2C(=O)c3ccccc3C2=O)c(OC)c1
14,127,COC(=O)CCCc1cc2nc(Cl)ccc2n1S(=O)(=O)c1ccccc1C(F)(F)F
15,121 to 122,COC(=O)N[C@@H](Cc1ccccc1)C(=O)CCl
16,175,O=C(NCO)C(Nc1ccccc1[N+](=O)[O-])c1c(Cl)cccc1Cl (stereo unspecified)
17,93 to 95,CN(C)C1=CCCS(=O)(=O)c2ccc(Cl)cc21
18,160,COC(=O)C1=C(CC(=O)N2CCN(C)CC2)NC(CS(=O)c2ccccc2OC)=C(C(=O)OC)C1c1c(Cl)cccc1Cl (stereo unspecified)
19,65 to 67,CCSC(C)(C)C(=O)CC(=O)Nc1cc(NC(=O)C(CC)Oc2ccc(C(C)(C)CC)cc2C(C)(C)CC)ccc1OC (stereo unspecified)
20,82 to 86,COC(=O)CCCc1cc2nc(Cl)ccc2n1S(=O)(=O)c1cccc(-c2nccs2)c1
21,225,O=C1CC(c2ccccc2)c2cc(C(c3ccc(Cl)cc3)n3ccnc3)ccc2N1 (stereo unspecified)
22,169 to 171,CCCCCCCCc1cccc(N2CC(=O)NC(=O)N2)c1
23,210 to 212,O=C(Nc1cccc(F)n1)c1cc(-c2ccc(O)cc2)nc2ccccc12

row,melting point [°C],SMILES
1,58 to 61,NCc1ccccc1N
2,163 to 167,Cn1nc(-c2cccc(-n3ncc4cc(C(C)(C)C)cc(F)c4c3=O)c2CO)cc(Nc2cnc(CNC3CCC3)cn2)c1=O
3,84 to 85,COc1ccc(N2CCN(c3c(C)c(C)c4c(c3C)C(OCc3ccc(C)cc3)C(C)(C)O4)CC2)cc1 (stereo unspecified)
4,74 to 78,COc1ccc2c(c1)CC(=O)C2
5,122 to 123,CSc1ccc(C(=O)c2c(C)cc3n2CCC3C(=O)OC(C)c2ccccc2)n1C (stereo unspecified)
6,173 to 175,Cc1ccccc1C(CCC(=O)O)Oc1cc(OCc2ccsc2)ccc1C(=O)C(=O)O (racemic)
7,111 to 114,CN(C)c1cc2c3c(cccc3c1)C(=O)N(CCCCCC(=O)O)C2=O
8,219 to 221,CCc1nc2cc(/C=C/C(=O)NO)c(F)cc2c(=O)n1CCc1ccccc1
9,163,CCCn1c(=O)c2c(nc(/C=C/c3ccccc3)n2C)n(CCC)c1=O
10,175 to 178,CC(=O)C(=Cc1cc(O)c(O)c([N+](=O)[O-])c1)C(C)=O
11,174 to 175,CCc1nc(N)nc(N)c1N1CCN(Cc2ccccc2)CC1
12,154 to 164,O=C(O)COc1coc2ccccc2c1=O
13,222 to 223,Cc1ccc(C(=O)c2c(OCc3ccccc3)cc(C(=O)O)cc2[N+](=O)[O-])cc1
14,199 to 201,CS(=O)(=O)c1ccc(C(CC2CCOCC2)c2ccc(-c3nnc(CO)s3)[nH]2)cc1 (stereo unspecified)
15,85 to 86,CCc1cccc(C(O)c2nc(OC)cc(OC)n2)c1N (stereo unspecified)
16,96 to 97,COCOc1ccc(-n2nc(C(F)(F)F)cc2-c2ccc(S(C)(=O)=O)cc2)cc1
17,93 to 95,CC(C)(C)c1ccc(OCC(=O)O)cc1
18,117 to 118,Cc1c2n(c3ccccc13)C(=O)C(Cc1cncn1C)CC2 (stereo unspecified)
19,40,O=C(OCCCCl)c1ccc([N+](=O)[O-])cc1[N+](=O)[O-]
20,192,Nc1cc(=O)n(Cc2ccc(F)cc2Cl)[nH]1
21,105 to 109,CCc1cccc(C)c1CNc1ccnc2c1nc(C)n2C
22,178 to 180,Cc1cc2n(C)c(=O)c3cnc4c(cnn4C)c3n2n1
23,161 to 162,NC(=O)N(O)C1CCC(c2ccccc2)CC1 (stereo unspecified)

row,melting point [°C],SMILES
1,118 to 120,CC(C)[C@H]1COC(=O)N1C(=O)[C@@H](CC(=O)OCc1ccccc1)Cc1ccccc1
2,113 to 114,COc1ccc(CNc2cnn[nH]2)cc1OC1CCCC1
3,148 to 151,O=C(O)c1cc(S(=O)CC(=O)c2ccccc2)cc(C(F)(F)F)c1 (stereo unspecified)
4,312 to 315,FC(F)(F)c1ccc(-c2[nH]c(=S)[nH]c2-c2ccc(C(F)(F)F)cc2)cc1
5,225 to 228,CCNCC1CCN(c2c(F)cc3c(=O)c(C(=O)O)cn(C4CC4C)c3c2F)C1 (stereo unspecified)
6,117 to 118,Fc1ccc2c(c1)Cc1cc(F)ccc1O2
7,147 to 149,CCOC(=O)C1=C(C)NC(CC)=C(C(=O)OCC)C1c1cc([N+](=O)[O-])ccc1OCCCCCl (stereo unspecified)
8,215 to 217,O=C(O)c1c(O)c(-c2ccc(-c3ccccc3)cc2)nc2c(Cl)cc(Cl)cc12
9,82 to 86,Nc1ccc(C#CC2CC2)c(F)c1
10,132 to 134,COc1cccc(-c2ccc(-c3ccccc3S(=O)(=O)Nc3onc(C)c3C)cc2)n1
11,161 to 164,Nc1ccc(S(=O)c2ccc(-c3ccc(Br)cc3)cc2)cc1N (stereo unspecified)
12,184 to 185,O=C1NC(CN2CCN(c3ccccc3)CC2)Cc2c[nH]c3cccc1c23 (stereo unspecified)
13,102 to 105,Nc1nc2c(s1)CCN(CC=Cc1cccc(C(F)(F)F)c1)CC2
14,132,Cc1cc(C)c(C#N)c(SSc2ccc([N+](=O)[O-])cc2C(Cl)(Cl)Cl)n1
15,203 to 205,Cc1c(C)c(N2CCN(c3nncs3)CC2)c(C)c2c1OC(C)C2 (stereo unspecified)
16,97 to 98,CCN(CC)CCNc1cc(-c2c(-c3cccc(C)c3)nc3cccnn23)ccn1
17,147 to 148,CCOc1nn(-c2ccc(C(F)(F)F)cn2)cc1CCCOc1cc(OC)ccc1CC(=O)O
18,176 to 178,CC1(C)C(=O)N(Cl)C(C)(C)C(=O)N1Cl
19,249,O=C(Nc1ncc(C(F)(F)F)o1)C1c2ccc(F)cc2Oc2cc(F)ccc21
20,274 to 277,CC1(C)CCC(C)(C)c2cc(C(=O)NNC(=O)c3ccc(C#N)cc3)ccc21
21,93.5 to 95,Cc1cccc2c1nc(COc1ccc(Cl)cc1)n2CCC(Cc1ccccc1)C(=O)N1CCCCC1 (stereo unspecified)
22,57 to 58,CCCc1c(OCCCCCOc2ccc3c(c2CCC)OC(C(=O)OC)CC3)ccc(C(C)=O)c1O (stereo unspecified)
23,57 to 58,CCOC(=O)CCCCc1ccc(OCc2nc(-c3ccccc3)oc2C)cc1

row,melting point [°C],SMILES
1,130 to 141,CNC(=O)[C@H]1S[C@@H](n2cnc3c(NC)nc(Cl)nc32)[C@H](O)[C@@H]1O
2,186 to 187,Nc1cc(Cl)c(Oc2ccc(S(=O)(=O)c3ccc(Cl)cc3)cc2)c(Cl)c1
3,211 to 212,CCCOc1ccc(F)c2c(=O)c(-c3ccc(OC)cc3)c(CN3CCN(c4ccccn4)CC3)[nH]c12
4,164,COc1ccc(S(=O)(=O)N2C(=O)C(c3ccccc3OC)(N3CCC[C@H]3C(=S)N(C)C)c3cc(Cl)ccc32)c(OC)c1 (stereo partly specified)
5,175 to 177,CC(=O)NC[C@H]1CN(c2ccc(N3CCC(O)(CN4CCNCC4)CC3)c(F)c2)C(=O)O1
6,86 to 87,CCCCCCCCCCCCCCCCCCN(C)S(=O)(=O)c1ccc(Cl)c([N+](=O)[O-])c1
7,258 to 260,Cc1c(Cc2ccccc2)c(=O)oc2cc(O)cc(O)c12
8,79 to 80,COc1ccccc1N1CCN(CCCNc2ccc(F)cc2)CC1
9,112 to 114,C=CCN(CC=C)c1ccc(C(C)N(O)C(N)=O)cc1 (stereo unspecified)
10,120 to 124,O=C/C=C/C1=C(c2ccc(F)cc2)C=C(c2ccc(F)cc2)CC12CCCC2
11,222 to 224,CC(C)n1c(C=O)c(-c2ccc(F)cc2)c(-c2ccccc2)c1C(=O)Nc1ccccc1
12,101 to 105,Cc1noc(-c2cnc(NC(=O)[C@H](CC3CCCC3)c3ccc(S(C)(=O)=O)c(Cl)c3)cn2)n1
13,157 to 158,COc1ccc(-c2c(Cl)c(CN3CCCC3)nc3sc4c(c23)CCN(Cc2ccccc2)C4)cc1OC
14,124 to 125,CC(=O)c1ccc(C=CC(=O)NCCO)cc1
15,85 to 86,CCOC(=O)/C=C/C=C/c1ccc(OCc2ccccc2)c(OC)c1
16,174,CC(C)c1ccc(CCC(O)(P(=O)(O)O)P(=O)(O)O)cc1
17,97 to 99,O=C(Cc1ccccc1)NCC(O)c1ccccc1 (stereo unspecified)
18,210,Cc1cccc(CC(=O)c2ccnc(-c3ccc(C(=O)NC4CCOCC4)cc3)c2)n1
19,122 to 133,CC(=O)N[C@@H](CCC(N)=O)C(=O)NC1(C(=O)NCCCCNC(N)=NC#N)Cc2ccccc2C1
20,110 to 112,CC1OC(=O)C(C)C(NC(=O)OCc2ccccc2)C1C(=O)OCc1ccccc1 (stereo unspecified)

row,SMILES,melting point [°C]
1,CCOC(=O)c1cn(CC)c2cc(N3CCNCC3)c(F)cc2c1=O,178 to 180
2,CC(=O)NC1(c2ccccc2Cl)CCC=CC1=O (stereo unspecified),144 to 145
3,CCCCCCC(C)(C)c1cc(O)c(C2=C(CO)CCC(C)C2)c(O)c1 (stereo unspecified),155 to 156
4,CCOP(=S)(OCC)SC(=CC(=O)c1cccc(Br)c1)C(=O)O,107 to 111
5,Cc1c(NC(=O)CC(C)(C)C)c(C)c(C(C)(C)O)c2c1C(c1ccc(C(C)C)cc1)CO2 (stereo unspecified),133 to 134
6,Clc1ccccc1C(c1ccccc1)(c1ccccc1)n1cccn1,135
7,CN1CCC(c2n[nH]c3ccc([N+](=O)[O-])cc23)CC1,237 to 239
